Measured values reported in US20230278983A1, “INDOLE DERIVATIVES AND USES THEREOF FOR TREATING A CANCER” (Universite Claude Bernard Lyon 1, priority 2020, published 2023).
Like-named read-outs stand apart in the source and are kept apart here.

Experiments:
MDA-MB231 cells = test: Cell death, IncuCyte propidium iodide live-cell imaging; format: cell-based, human; settings: 48 hours, increasing concentrations
CK2 = CK2 (Homo sapiens (Human), UniProt P68400); test: Radiometric CK2 kinase assay; format: biochemical; settings: for inhibition at 1 µM: compound at 1 μM
786-O and RPTEC cells = test: Immunoblotting of CK2-dependent substrate phosphorylation and apoptosis markers; format: cell-based; settings: 48 hours or 24 hours, increasing concentrations
A549 and MDA-MB231 cells = test: as above; format: cell-based, human; settings: A549 24 hours, MDA-MB231 48 hours
[1] = inhibition of CK2 activity, ATP 10 μM

Chain of CK2 (P68400 whole entry): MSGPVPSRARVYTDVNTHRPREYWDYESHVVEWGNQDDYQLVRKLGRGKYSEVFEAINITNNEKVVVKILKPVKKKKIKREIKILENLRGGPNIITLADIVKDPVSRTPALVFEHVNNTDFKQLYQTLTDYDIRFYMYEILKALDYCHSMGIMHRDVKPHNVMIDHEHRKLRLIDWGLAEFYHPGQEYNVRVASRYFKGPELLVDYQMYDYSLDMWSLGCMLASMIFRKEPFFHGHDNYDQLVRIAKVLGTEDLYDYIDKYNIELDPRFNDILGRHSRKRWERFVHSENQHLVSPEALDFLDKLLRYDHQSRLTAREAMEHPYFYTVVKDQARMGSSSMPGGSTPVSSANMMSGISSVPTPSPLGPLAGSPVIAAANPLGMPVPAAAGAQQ

CCOC(=O)c1[nH]c2ccc(F)cc2c1-c1cn(CC2CCN(CCNS(=O)(=O)c3ccc(CC)cc3)CC2)nn1 [AB526, Ethyl 3-(1-((1-(2-((4-ethylphenyl)sulfonamido)ethyl)piperidin-4-yl)methyl)-1H-1,2,3-triazol-4-yl)-5-fluoro-1H-indole-2-carboxylate]
Sensitivity to compound-mediated cell death, MDA-MB231 versus normal MCF10A (MDA-MB231 cells): much more sensitive
IC50 (CK2): 300 nM
Mechanism of CK2 inhibition with respect to ATP (CK2; Lineweaver-Burk analysis (n=2)): non-ATP competitive mechanism of CK2 inhibition
Mechanism of inhibition towards CK2β (CK2; Lineweaver-Burk analysis (n=2)): mixed competitive inhibition towards CK2β
CK2-dependent substrate phosphorylation and apoptosis (western blot) (786-O and RPTEC cells): inhibit CK2-dependent substrate phosphorylation in cells and induce apoptosis
CK2-dependent substrate phosphorylation and apoptosis (western blot) (A549 and MDA-MB231 cells): inhibit CK2-dependent substrate phosphorylation and induce apoptosis in different cancer cell lines

CC(C)COC(=O)c1[nH]c2ccc(F)cc2c1-c1cn(CC2CCN(CCNS(=O)(=O)c3ccc(C4CCCCC4)cc3)CC2)nn1 [AB914, isobutyl 3-(1-((1-(2-((4-cyclohexylphenyl)sulfonamido)ethyl)piperidin-4-yl)methyl)-1H-1,2,3-triazol-4-yl)-5-fluoro-1H-indole-2-carboxylate]
IC50 (CK2): 71 nM

O=C(O)c1[nH]c2ccc(Cl)cc2c1-c1cn(CC2CCN(CCNS(=O)(=O)c3ccc(Cl)cc3)CC2)nn1 [AB201, 5-Chloro-3-(1-((1-(2-((4-chlorophenyl)sulfonamido)ethyl)piperidin-4-yl)methyl)-1H-1,2,3-triazol-4-yl)-1H-indole-2-carboxylic acid]
IC50 (CK2; [1]): 10100 nM

CC(C)COC(=O)c1[nH]c2ccc(F)cc2c1-c1cn(CC2CCN(CCNS(=O)(=O)c3ccc4c(c3)CCC4)CC2)nn1 [AB932, isobutyl 3-(1-((1-(2-((2,3-dihydro-1H-indene)-5-sulfonamido)ethyl)piperidin-4-yl)methyl)-1H-1,2,3-triazol-4-yl)-5-fluoro-1H-indole-2-carboxylate]
IC50 (CK2): 75 nM

CC(=O)c1[nH]c2ccc(F)cc2c1-c1cn(CC2CCN(CCNS(=O)(=O)c3ccc(-c4ccccc4F)cc3)CC2)nn1 [AB1390, N-(2-(4-((4-(2-acetyl-5-fluoro-1H-indol-3-yl)-1H-1,2,3-triazol-1-yl)methyl)piperidin-1-yl)ethyl)-2′-fluoro-[1,1′-biphenyl]-4-sulfonamide]
inhibition at 0.1 µM (CK2; compound at 0.10 μM, ATP 10 μM): 36%

CC(C)COC(=O)c1[nH]c2ccc(F)cc2c1-c1cn(CC2CCN(CCNS(=O)(=O)c3ccc(-c4cccnc4F)cc3)CC2)nn1 [AB1207, isobutyl 5-fluoro-3-(1-((1-(2-((4-(2-fluoropyridin-3-yl)phenyl)sulfonamido)ethyl)piperidin-4-yl)methyl)-1H-1,2,3-triazol-4-yl)-1H-indole-2-carboxylate]
inhibition at 0.05 µM (CK2; compound at 0.05 μM, ATP 10 μM): 61%

CC(C)COC(=O)c1[nH]c2ccc(F)cc2c1-c1cn(CC2CCN(CCNS(=O)(=O)Cc3cccc(Cl)c3)CC2)nn1 [AB937, isobutyl 3-(1-((1-(2-(((3-chlorophenyl)methyl)sulfonamido)ethyl)piperidin-4-yl)methyl)-1H-1,2,3-triazol-4-yl)-5-fluoro-1H-indole-2-carboxylate]
IC50 (CK2; [1]): 800 nM

CCc1ccc(S(=O)(=O)NCCN2CCC(Cn3cc(-c4c(C(=O)NCCC(C)C)[nH]c5ccc(F)cc45)nn3)CC2)cc1 [AB670, 3-(1-((1-(2-((4-Ethylphenyl)sulfonamido)ethyl)piperidin-4-yl)methyl)-1H-1,2,3-triazol-4-yl)-5-fluoro-N-isopentyl-1H-indole-2-carboxamide]
inhibition at 1 µM (CK2; ATP 10 μM): 14%

COCc1ccccc1-c1ccc(CN2CCC(Cn3cc(-c4c(C(=O)OCC(C)C)[nH]c5ccc(F)cc45)nn3)CC2)cc1C(C)C [AB704]
inhibition at 1 µM (CK2; ATP 10 μM): 21%
